Experimental data from patent US20260209214A1, “LSD1 MODULATORS” (RECURSION PHARMACEUTICALS, INC., priority 2022, published 2026).

target: Recombinant human LSD1 (Homo sapiens, UniProt O60341); assay: LSD1 inhibition assay (HTRF LSD1 Histone H3K4 mono-demethylation assay, me1->me0); assay type: biochemical; settings: 20 nM recombinant human LSD1, 95 nM H3K4(me1) biotinylated peptide, 15 min preincubation, 60 min at 25° C., read-out: LSD1 inhibition IC50 (nM range)
In short: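 HTRF demethylation (me1->me0) read-out: streptavidin-XL665 and anti-H3K4me0 cryptate added after reaction, ratio measured after 90 min dark. Reaction: 95 nM H3K4me1 biotin-peptide, 20 nM LSD1 (15-min compound pre-incubation), 60 min, 25 °C, buffer pH 8.5 plus FAD and DTT; 4-parameter logistic IC50.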

Row | Compound | IC50 [nM]
1 | N#Cc1ccc(-c2cc(CC3CNCCO3)ccc2N2CCC2)cc1F (stereo not shown) [Example 44, 2′-(azetidin-1-yl)-3-fluoro-5′-[(morpholin-2-yl)methyl]-[1,1′-biphenyl]-4-carbonitrile] | 100 to 1000
2 | Cc1cnsc1-c1c(CC2CNCCO2)cccc1-c1ccc(C#N)c(F)c1 (stereo not shown) [Example 45, 3-fluoro-2′-(4-methyl-1,2-thiazol-5-yl)-3′-[(morpholin-2-yl)methyl]-[1,1′-biphenyl]-4-carbonitrile] | 100 to 1000
3 | N#Cc1ccc(-c2cccc(CC3CNCCCO3)c2N2CCC2)cc1F (stereo not shown) [Example 46, 2′-(azetidin-1-yl)-3-fluoro-3′-[(1,4-oxazepan-2-yl)methyl]-[1,1′-biphenyl]-4-carbonitrile] | 25 to 100
4 | N#Cc1ccc(-c2cccc(CC3CNCCO3)c2-c2cnco2)cc1F (stereo not shown) [Example 47, 3-fluoro-3′-[(morpholin-2-yl)methyl]-2′-(1,3-oxazol-5-yl)-[1,1′-biphenyl]-4-carbonitrile] | 25 to 100
5 | N#Cc1ccc(-c2cccc(CC3CNCCO3)c2-c2cncs2)cc1F (stereo not shown) [Example 48, 3-fluoro-3′-[(morpholin-2-yl)methyl]-2′-(1,3-thiazol-5-yl)-[1,1′-biphenyl]-4-carbonitrile] | 10 to 25
6 | N#Cc1ccc(-c2cc(F)cc(CC3CNCCO3)c2-c2cnco2)cc1F (stereo not shown) [Example 49, 3,5′-difluoro-3′-[(morpholin-2-yl)methyl]-2′-(1,3-oxazol-5-yl)-[1,1′-biphenyl]-4-carbonitrile] | 25 to 100
7 | N#Cc1ccc(-c2cccc(CC3CNCCO3)c2N2CCC2)cc1 (stereo not shown) [Example 50, 2′-(azetidin-1-yl)-3′-[(morpholin-2-yl)methyl]-[1,1′-biphenyl]-4-carbonitrile] | 100 to 1000
8 | Cc1ncoc1-c1c(CC2CNCCO2)cccc1-c1ccc(C#N)c(F)c1 (stereo not shown) [Example 51, 3-fluoro-2′-(4-methyl-1,3-oxazol-5-yl)-3′-[(morpholin-2-yl)methyl]-[1,1′-biphenyl]-4-carbonitrile] | 25 to 100
9 | COC1CCN(c2ccc(CC3CNCCO3)cc2-c2ccc(C#N)c(F)c2)CC1 (stereo not shown) [Example 52, 3-fluoro-2′-(4-methoxypiperidin-1-yl)-5′-[(morpholin-2-yl)methyl]-[1,1′-biphenyl]-4-carbonitrile] | 100 to 1000
10 | Cc1cc(CC2CNCCO2)c(-c2ccns2)c(-c2ccc(C#N)cc2)c1 (stereo not shown) [Example 53, 5′-methyl-3′-[(morpholin-2-yl)methyl]-2′-(1,2-thiazol-5-yl)-[1,1′-biphenyl]-4-carbonitrile] | 10 to 25
11 | COCC1CN(c2ccc(CC3CNCCO3)cc2-c2ccc(C#N)c(F)c2)C1 (stereo not shown) [Example 55, 3-fluoro-2′-[3-(methoxymethyl)azetidin-1-yl]-5′-[(morpholin-2-yl)methyl]-[1,1′-biphenyl]-4-carbonitrile] | 100 to 1000
12 | Cn1ncc2cc(-c3ccc(CC4CNCCO4)cc3-c3ccc(C#N)c(F)c3)cnc21 (stereo not shown) [Example 56, 3-fluoro-2′-{1-methyl-1H-pyrazolo[3,4-b]pyridin-5-yl}-5′-[(morpholin-2-yl)methyl]-[1,1′-biphenyl]-4-carbonitrile] | 25 to 100
13 | N#Cc1ccc(-c2cc(C3CC3)cc(CC3CNCCO3)c2-c2cncs2)cc1F (stereo not shown) [Example 57, 5′-cyclopropyl-3-fluoro-3′-[(morpholin-2-yl)methyl]-2′-(1,3-thiazol-5-yl)-[1,1′-biphenyl]-4-carbonitrile] | 10 to 25
14 | N#Cc1ccc(-c2cc(CC3CNCCO3)ccc2N2CCC(c3ncccn3)CC2)cc1F (stereo not shown) [Example 59, 3-fluoro-5′-[(morpholin-2-yl)methyl]-2′-[4-(pyrimidin-2-yl)piperidin-1-yl]-[1,1′-biphenyl]-4-carbonitrile] | 100 to 1000
15 | N#Cc1ccc(-c2cc(CC3CNCCO3)ccc2N2CCC(O)(C3CC3)CC2)cc1F (stereo not shown) [Example 60, 2′-(4-cyclopropyl-4-hydroxypiperidin-1-yl)-3-fluoro-5′-[(morpholin-2-yl)methyl]-[1,1′-biphenyl]-4-carbonitrile] | 25 to 100
16 | COC1(C)CCN(c2ccc(CC3CNCCO3)cc2-c2ccc(C#N)c(F)c2)CC1 (stereo not shown) [Example 61, 3-fluoro-2′-(4-methoxy-4-methylpiperidin-1-yl)-5′-[(morpholin-2-yl)methyl]-[1,1′-biphenyl]-4-carbonitrile] | 100 to 1000
17 | N#Cc1ccc(-c2cc(CC3CNCCO3)ccc2N2CC3(CCOCC3)C2)cc1F (stereo not shown) [Example 62, 3-fluoro-5′-[(morpholin-2-yl)methyl]-2′-{7-oxa-2-azaspiro[3.5]nonan-2-yl}-[1,1′-biphenyl]-4-carbonitrile] | 100 to 1000
18 | CCOCC1(O)CCN(c2ccc(CC3CNCCO3)cc2-c2ccc(C#N)c(F)c2)CC1 (stereo not shown) [Example 63, 2′-[4-(ethoxymethyl)-4-hydroxypiperidin-1-yl]-3-fluoro-5′-[(morpholin-2-yl)methyl]-[1,1′-biphenyl]-4-carbonitrile] | 100 to 1000
19 | N#Cc1ccc(-c2cccc(CC3CNCCO3)c2C2=CCCC2)cc1F (stereo not shown) [Example 64, 2′-(cyclopent-1-en-1-yl)-3-fluoro-3′-[(morpholin-2-yl)methyl]-[1,1′-biphenyl]-4-carbonitrile] | 25 to 100

Row | Compound | IC50 [nM]
20 | N#Cc1ccc(-c2cccc(CC3CNCCO3)c2-c2ncco2)cc1F (stereo not shown) [Example 65, 3-fluoro-3′-[(morpholin-2-yl)methyl]-2′-(1,3-oxazol-2-yl)-[1,1′-biphenyl]-4-carbonitrile] | > 1000
21 | CC(C)C1(O)CCN(c2ccc(CC3CNCCO3)cc2-c2ccc(C#N)c(F)c2)C1 (stereo not shown) [Example 66, 3-fluoro-2′-[3-hydroxy-3-(propan-2-yl)pyrrolidin-1-yl]-5′-[(morpholin-2-yl)methyl]-[1,1′-biphenyl]-4-carbonitrile] | 100 to 1000
22 | COCC1CCN(c2ccc(CC3CNCCO3)cc2-c2ccc(C#N)c(F)c2)CC1 (stereo not shown) [Example 67, 3-fluoro-2′-[4-(methoxymethyl)piperidin-1-yl]-5′-[(morpholin-2-yl)methyl]-[1,1′-biphenyl]-4-carbonitrile] | 25 to 100
23 | COCc1ccc(-c2ccc(CC3CNCCO3)cc2-c2ccc(C#N)c(F)c2)c(F)c1 (stereo not shown) [Example 68, 3-fluoro-2′-[2-fluoro-4-(methoxymethyl)phenyl]-5′-[(morpholin-2-yl)methyl]-[1,1′-biphenyl]-4-carbonitrile] | 25 to 100
24 | Cc1ncc(-c2c(CC3CNCCO3)cccc2-c2ccc(C#N)c(F)c2)o1 (stereo not shown) [Example 69, 3-fluoro-2′-(2-methyl-1,3-oxazol-5-yl)-3′-[(morpholin-2-yl)methyl]-[1,1′-biphenyl]-4-carbonitrile] | 100 to 1000
25 | N#Cc1ccc(-c2cc(CC3CNCCO3)ccc2N2CCC3(CCOC3)CC2)cc1F (stereo not shown) [Example 70, 3-fluoro-5′-[(morpholin-2-yl)methyl]-2′-{2-oxa-8-azaspiro[4.5]decan-8-yl}-[1,1′-biphenyl]-4-carbonitrile] | 25 to 100
26 | N#Cc1ccc(-c2cccc(CC3CCCNC3)c2-c2ccns2)cc1F (stereo not shown) [Example 71, 3-fluoro-3′-[(piperidin-3-yl)methyl]-2′-(1,2-thiazol-5-yl)-[1,1′-biphenyl]-4-carbonitrile] | < 10
27 | N#Cc1ccc(-c2cc(CC3CNCCO3)ccc2OC[C@@H]2CCCOC2)cc1F (stereo partly drawn) [Example 72, 3-fluoro-5′-[(morpholin-2-yl)methyl]-2′-{[(3R)-oxa-3-yl]methoxy}-[1,1′-biphenyl]-4-carbonitrile] | 100 to 1000
28 | N#Cc1ccc(-c2cc(CC3CNCCO3)ccc2N2CCC(C3CCCO3)CC2)cc1F (stereo not shown) [Example 73, 3-fluoro-5′-[(morpholin-2-yl)methyl]-2′-[4-(oxolan-2-yl)piperidin-1-yl]-[1,1′-biphenyl]-4-carbonitrile] | 25 to 100
29 | COCC1CCN(c2ccc(CC3CNCCCO3)cc2-c2ccc(C#N)c(F)c2)CC1 (stereo not shown) [Example 74, 3-fluoro-2′-[4-(methoxymethyl)piperidin-1-yl]-5′-[(1,4-oxazepan-2-yl)methyl]-[1,1′-biphenyl]-4-carbonitrile] | 10 to 25
30 | CC(c1ccc(N2CCC2)c(-c2ccc(C#N)c(F)c2)c1)C1CNCCO1 (stereo not shown) [Example 76, 2′-(azetidin-1-yl)-3-fluoro-5′-[1-(morpholin-2-yl)ethyl]-[1,1′-biphenyl]-4-carbonitrile] | 100 to 1000
31 | COc1cn(-c2ccc(CC3CNCCO3)cc2-c2ccc(C#N)c(F)c2)nc1C (stereo not shown) [Example 77, 3-fluoro-2′-(4-methoxy-3-methyl-1H-pyrazol-1-yl)-5′-[(morpholin-2-yl)methyl]-[1,1′-biphenyl]-4-carbonitrile] | 100 to 1000
32 | N#Cc1ccc(-c2cc(CC3CNCCO3)ccc2N2CCC3(CCCO3)CC2)cc1F (stereo not shown) [Example 78, 3-fluoro-5′-[(morpholin-2-yl)methyl]-2′-{1-oxa-8-azaspiro[4.5]decan-8-yl}-[1,1′-biphenyl]-4-carbonitrile] | 100 to 1000
33 | CC(C)C1(O)CCN(c2ccc(CC3CNCCO3)cc2-c2ccc(C#N)c(F)c2)CC1 (stereo not shown) [Example 79, 3-fluoro-2′-[4-hydroxy-4-(propan-2-yl)piperidin-1-yl]-5′-[(morpholin-2-yl)methyl]-[1,1′-biphenyl]-4-carbonitrile] | 10 to 25
34 | COc1ccc(-c2ccc(CC3CNCCO3)cc2-c2ccc(C#N)c(F)c2)cn1 (stereo not shown) [Example 80, 3-fluoro-2′-(6-methoxypyridin-3-yl)-5′-[(morpholin-2-yl)methyl]-[1,1′-biphenyl]-4-carbonitrile] | 100 to 1000
35 | CNC1CCN(c2cccc(-c3ccc(C#N)c(F)c3)c2-c2ccns2)CC1 [Example 81, 3-fluoro-3'-[4-(methylamino)piperidin-1-yl]-2'-(1,2-thiazol-5-yl)-[1,1'-biphenyl]-4-carbonitrile] | 10 to 25
36 | N#Cc1ccc(-c2cccc(CC3CNCCCO3)c2C2CC2)cc1F (stereo not shown) [Example 82, 2′-cyclopropyl-3-fluoro-3′-[(1,4-oxazepan-2-yl)methyl]-[1,1′-biphenyl]-4-carbonitrile] | 25 to 100
37 | COCCc1ccc(-c2ccc(CC3CNCCO3)cc2-c2ccc(C#N)c(F)c2)c(F)c1 (stereo not shown) [Example 83, 3-fluoro-2′-[2-fluoro-4-(2-methoxyethyl)phenyl]-5′-[(morpholin-2-yl)methyl]-[1,1′-biphenyl]-4-carbonitrile] | 25 to 100
